Test results from patent US20240400572A1, “COMPOUNDS AND METHODS FOR TREATING CANCERS THAT ARE MGMT DEFICIENT REGARDLESS OF MMR STATUS” (Yale University, priority 2021, published 2024).
Where a name gives a salt, the structure may show the parent alone.

What was measured:
Assay in all cases: Anticancer activity towards LN229 human brain glioblastoma cells (nuclei count after 120 hours)
Type in all cases: cell-based
Details in all cases: LN-229, LN229 quad cells, 200 μM to 0.1 uM
[1] = test system: LN229 MGMT+ MMR+ cells
Description: (§1) Exemplary compounds were evaluated for activity against LN229 human brain glioblastoma cells. Experimental procedures and results are provided elsewhere herein.
(§2) LN229 quad cells were maintained in Dulbecco's Modified Eagle Medium (DMEM) supplemented with 10% fetal bovine serum. Cells were plated into sterile black with glass bottom 384-well plates (Cellvis) at a concentration of 1,000 cells/well (20 μL total volume) using a MultiDrop (Thermo Fisher). Then, assay plates were centrifuged at 300 rpm for 2 seconds and incubated overnight in a 37° C. 5% CO2 incubator. Compounds were prepared as 100 mM stocks in DMSO and stored protected from light at −20′C until use. Prior to compound addition, the stock solutions of compound were diluted two-fold serially in DMSO from 100 mM down to 0.05 mM in a 384-well Source plate. Vehicle control wells containing DMSO and positive control wells containing 10 mM bortezomib were also added to the Source plate. An aliquot in the amount of 40 nL of compound stock solution or DMSO vehicle was transferred from the source plate to the cell assay plate using an Echo Acoustic dispense (Beckman). Three replicate dilution curves of each compound were run on each assay plate. An aliquot in the amount of 120 nL of a 10 mM bortezomib solution was transferred to the positive control wells resulting in a final concentration of 60 μM. The final concentration of compounds ranged from 200 μM to 0.1 uM (12-point, 2-fold dilution dose response curve), and the final DMSO concentration was 0.2%.
(§3) Assay plates were centrifuged at 500 rpm for 2 seconds and incubated for 120 hours at 37° C. in a humidified 5% CO2 incubator. Following incubation, cells were fixed with 4% paraformaldehyde and stained with DAPI for nuclei visualization. The images were acquired on the InCell 2200 high content imager (GE, now […]), and quantified using InCell Analyzer image analysis software. Z prime factor, signal-to-background and coefficient of variation were calculated for each assays plate using mean and standard deviation values of the negative (vehicle) and positive (bortezomib) control wells to ensure assay robustness. Raw cell count data for test compounds was normalized to percent viability relative to the DMSO vehicle control. Data was plotted in GraphPad Prism using a variable slope 4-parameter fit.

[2] = test system: LN229 MGMT+ MMR− cells
Description: as §1, §2, §3

[3] = test system: LN229 MGMT− MMR+ cells
Description: as §1, §2, §3

[4] = test system: LN229 MGMT− MMR− cells
Description: as §1, §2, §3

[2H]C([2H])([2H])N(Cc1ccccc1)C(=O)c1ncn2c(=O)n(CCF)nnc12 [Compound I-20, N-benzyl-3-(2-fluoroethyl)-N-(2H3)methyl-4-oxo-3H,4H-imidazo[4,3-][1,2,3,5]tetrazine-8-carboxamide]
IC50 [1]: > 80 µM | IC50 [2]: > 80 µM | IC50 [3]: 50 to 80 µM | IC50 [4]: < 10 µM

CCCNC(=O)c1ncn2c(=O)n(CCF)nnc12 [Compound I-16, 3-(2-fluoroethyl)-4-oxo-N-propyl-3H,4H-imidazo[4,3-d][1,2,3,5]tetrazine-8-carboxamide]
IC50 [1]: > 80 µM | IC50 [2]: > 80 µM | IC50 [3]: 10 to 20 µM | IC50 [4]: < 10 µM

CN(C)C(=O)c1ncn2c(=O)n(CCF)nnc12 [Compound I-6, 3-(2-fluoroethyl)-N,N-dimethyl-4-oxo-3H,4H-imidazo[4,3-d][1,2,3,5]tetrazine-8-carboxamide]
IC50 [1]: > 80 µM | IC50 [2]: > 80 µM | IC50 [3]: 20 to 50 µM | IC50 [4]: 10 to 20 µM

CCCN(CCC)C(=O)c1ncn2c(=O)n(CCF)nnc12 [Compound I-13, 3-(2-fluoroethyl)-4-oxo-N,N-dipropyl-3H,4H-imidazo[4,3-d][1,2,3,5]tetrazine-8-carboxamide]
IC50 [1]: 20 to 50 µM | IC50 [2]: 20 to 50 µM | IC50 [3]: 20 to 50 µM | IC50 [4]: 10 to 20 µM

CCN(CC)C(=O)c1ncn2c(=O)n(CCF)nnc12 [Compound I-15, N,N-diethyl-3-(2-fluoroethyl)-4-oxo-3H,4H-imidazo[4,3-d][1,2,3,5]tetrazine-8-carboxamide]
IC50 [1]: > 80 µM | IC50 [2]: > 80 µM | IC50 [3]: 50 to 80 µM | IC50 [4]: 10 to 20 µM

O=C(NC1CCC1)c1ncn2c(=O)n(CCF)nnc12 [Compound I-5, N-cyclobutyl-3-(2-fluoroethyl)-4-oxo-3H,4H-imidazo[4,3-d][1,2,3,5]tetrazine-8-carboxamide]
IC50 [1]: > 80 µM | IC50 [2]: > 80 µM | IC50 [3]: 10 to 20 µM | IC50 [4]: < 10 µM

O=C(Nc1ccccn1)c1ncn2c(=O)n(CCF)nnc12 [Compound I-8, 3-(2-fluoroethyl)-4-oxo-N-(pyridin-2-yl)-3H,4H-imidazo[4,3-d][1,2,3,5]tetrazine-8-carboxamide]
IC50 [1]: > 80 µM | IC50 [2]: > 80 µM | IC50 [3]: 10 to 20 µM | IC50 [4]: < 10 µM

O=C(NCC(F)(F)F)c1ncn2c(=O)n(CCF)nnc12 [Compound I-3, 3-(2-fluoroethyl)-4-oxo-N-(2,2,2-trifluoroethyl)-3H,4H-imidazo[4,3-d][1,2,3,5]tetrazine-carboxamide]
IC50 [1]: > 80 µM | IC50 [2]: > 80 µM | IC50 [3]: < 10 µM | IC50 [4]: < 10 µM

CCN(C)C(=O)c1ncn2c(=O)n(CCF)nnc12 [Compound I-14, N-ethyl-3-(2-fluoroethyl)-N-methyl-4-oxo-3H,4H-imidazo[4,3-d][1,2,3,5]tetrazine-8-carboxamide]
IC50 [1]: > 80 µM | IC50 [2]: > 80 µM | IC50 [3]: 20 to 50 µM | IC50 [4]: 10 to 20 µM

CCCN(CC)C(=O)c1ncn2c(=O)n(CCF)nnc12 [Compound I-18, N-ethyl-3-(2-fluoroethyl)-4-oxo-N-propyl-3H,4H-imidazo[4,3-d][1,2,3,5]tetrazine-8-carboxamide]
IC50 [1]: > 80 µM | IC50 [2]: > 80 µM | IC50 [3]: > 80 µM | IC50 [4]: 20 to 50 µM

O=C(NC1CC1)c1ncn2c(=O)n(CCF)nnc12 [Compound I-4, N-cyclopropyl-3-(2-fluoroethyl)-4-oxo-3H,4H-imidazo[4,3-d][1,2,3,5]tetrazine-8-carboxamide]
IC50 [1]: > 80 µM | IC50 [2]: > 80 µM | IC50 [3]: 10 to 20 µM | IC50 [4]: < 10 µM

CCNC(=O)c1ncn2c(=O)n(CCF)nnc12 [Compound I-2, N-ethyl-3-(2-fluoroethyl)-4-oxo-3H,4H-imidazo[4,3-d][1,2,3,5]tetrazine-8-carboxamide]
IC50 [1]: > 80 µM | IC50 [2]: > 80 µM | IC50 [3]: 10 to 20 µM | IC50 [4]: < 10 µM

O=C(c1ncn2c(=O)n(CCF)nnc12)N1CCC1 [Compound I-9, 8-(azetidine-1-carbonyl)-3-(2-fluoroethyl)-3H,4H-imidazo[4,3-d][1,2,3,5]tetrazin-4-one]
IC50 [1]: > 80 µM | IC50 [2]: > 80 µM | IC50 [3]: 10 to 20 µM | IC50 [4]: < 10 µM

CN(C)CCNC(=O)c1ncn2c(=O)n(CCF)nnc12 [Compound I-12, N-[2-(dimethylamino)ethyl]-3-(2-fluoroethyl)-4-oxo-3H,4H-imidazo[4,3-d][1,2,3,5]tetrazine-8-carboxamide hydrochloride]
IC50 [1]: > 80 µM | IC50 [2]: > 80 µM | IC50 [3]: < 10 µM | IC50 [4]: < 10 µM

CCCN(C)C(=O)c1ncn2c(=O)n(CCF)nnc12 [Compound I-17, 3-(2-fluoroethyl)-N-methyl-4-oxo-N-propyl-3H,4H-imidazo[4,3-d][1,2,3,5]tetrazine-8-carboxamide]
IC50 [1]: > 80 µM | IC50 [2]: > 80 µM | IC50 [3]: > 80 µM | IC50 [4]: 20 to 50 µM

O=C(Nc1nccs1)c1ncn2c(=O)n(CCF)nnc12 [Compound I-7, 3-(2-fluoroethyl)-4-oxo-N-(1,3-thiazol-2-yl)-3H,4H-imidazo[4,3-d][1,2,3,5]tetrazine-8-carboxamide]
IC50 [1]: < 10 µM | IC50 [2]: < 10 µM | IC50 [3]: < 10 µM | IC50 [4]: < 10 µM

[2H]C([2H])([2H])NC(=O)c1ncn2c(=O)n(CCF)nnc12 [Compound I-19, 3-(2-fluoroethyl)-N-(D3)methyl-4-oxo-3H,4H-imidazo[4,3-d][1,2,3,5]tetrazine-8-carboxamide]
IC50 [1]: > 80 µM | IC50 [2]: > 80 µM | IC50 [3]: 50 to 80 µM | IC50 [4]: < 10 µM

O=C(c1ncn2c(=O)n(CCF)nnc12)N1CCCC1 [Compound I-10, 3-(2-fluoroethyl)-8-(pyrrolidine-1-carbonyl)-3H,4H-imidazo[4,3-d][1,2,3,5]tetrazin-4-one]
IC50 [1]: > 80 µM | IC50 [2]: > 80 µM | IC50 [3]: 20 to 50 µM | IC50 [4]: < 10 µM
